# According to US20090169472A1, “METHODS AND COMPOSITIONS FOR TREATING IMMUNE DISORDERS” (CANCER RESEARCH TECHNOLOGY LTD., priority 2005, published 2009):
# Oligonucleotides are written 5' to 3', each unit as a sugar letter and its base; * is a phosphorothioate linkage, no mark a phosphodiester; rarer units and linkages stand in square brackets, end groups in braces. Plain capitals give the bases only. r = 2'-OH (RNA)
# Assays:
# Flt3L-DC = Flt3L-DC activation assay (cytokines in supernatant by sandwich ELISA); assay type: cell-based, mouse
# Experimental: Flt3L-DC were generated from bone marrow cell suspensions in RPMI 1640 medium containing 10% fetal calf serum, 2 mM glutamine, 100 units/ml penicillin, 100 μg/ml streptomycin, 50 μM 2-mercaptoethanol and 50 ng/ml murine Flt3L (R&D systems) and were used at day 10 or 11 of cultures.
# For stimulation with oligonucleotides, 2×10^5 Flt3L-DC were seeded in triplicate in 96-well-plates. Oligonucleotides were added and cells were cultured overnight in a final volume of 200 μl. Controls contained medium alone, 0.5 μg/ml CpG 1668, 100 mM loxoribine or 1 μM R848.
# For stimulation with oligonucleotides other than CpG 1668, different doses of each test oligonucleotides were diluted in 150 mM NaCl solution and mixed with an equal volume of 150 mM NaCl solution+/−polytheylenimine (PEI; 3 μl/ml PEI were used irrespective of the RNA dose). After 15 min incubation at room temperature, oligonucleotide/PEI complexes were added to cells. Supernatants were collected after 18-20 hr of culture and levels of IFNα, IL-6 and IL-12 p40 were determined by sandwich ELISA.
# [1] = test system: human plasmacytoid DC (pDC); assay: Human pDC activation assay (IFNα and IL-6 in supernatant by sandwich ELISA); assay type: cell-based
# Experimental: Human pDC activation assays. R848 and RNA9.2DR complexed to LyoVec were from Invivogen. RNA oligonucleotides were purchased from Sigma Proligo. Human PMBCs were purified from normal human peripheral blood by Ficoll-Hypaque centrifugation. BDCA4^+ plasmacytoid DC were purified from total PBMC by positive selection using CD304^+ Microbeads and MiniMacs from MiltenyiBiotec. Oligonucleotides/PEI complexes, prepared as described above, were added to 1-2×10^5 pDC seeded in duplicate in 96-well-plates. Cells were cultured overnight in a final volume of 200 μl, supernatants were collected after 18-20 hr of culture and levels of IFNα and IL-6 were determined by sandwich ELISA.
# [2] = polyUs 21-mer 10 μM as PEI complexes, RNA9.2DR 1 μM as LyoVec complexes, R848 1 μM
substance,measurement,setting,value
"polyUs-21: polyU RNA 21-mer, phosphorothioate bonds, SEQ ID NO 5 (rU*rU*rU*rU*rU*rU*rU*rU*rU*rU*rU*rU*rU*rU*rU*rU*rU*rU*rU*rU*rU)",potency in inducing IFNα compared with RNA40,Flt3L-DC; PEI complexes,much more potent than RNA40
same,"IFNα levels, RNA oligonucleotide polyUs-21 compared with DNA oligonucleotide polydUs-21","Flt3L-DC; PEI complexes, all doses tested",induced higher levels of IFNα at all doses tested
same,IFNα induction by Flt3L-DC,Flt3L-DC; free oligonucleotide given to culture without PEI,induced IFNα
same,fold more potent in inducing IFNα by Flt3L-DC than R848 and loxoribine,"Flt3L-DC; ligands at concentrations of maximum cytokine induction: polyUs-21 1 μg/ml + PEI, CpG 1668 0.5 μg/ml, loxoribine 100 mM, R848 10 μg/ml",approximately 30 times
same,optimal dose of ssRNA for IFNα induction,"Flt3L-DC; mouse Flt3L, PEI complexes",3 µg/mL
same,IFNα induction by Flt3L-DC,"Flt3L-DC; oligonucleotide/PEI complexes, C57BL/6 Flt3L-DC, overnight culture, result in words",induced IFNα by Flt3L-DC in a dose dependent manner
same,ability to stimulate TLR7,Flt3L-DC; summary statement on oligonucleotides of Table 1,capable of stimulating TLR7
same,IFN-α production by human pDC,"[1]; PEI complexes, different doses of polyUs 21-mer, polyAs 21-mer 1 μM, overnight culture",induced IFN-α production by human pDC in a dose-dependent manner
same,optimal dose of ssRNA for IFN-α induction,"[1]; human pDC, PEI complexes",3 µg/mL
same,"IFNα production by human pDC, comparison of TLR7/8 agonists",[1]; [2],induced equivalent levels of IFNα production by human pDC
same,IL-6 induction by human pDC,[1]; [2],failed to induce IL-6 secretion by pDC
